Measured values from patent publication US6670379B2, “Piperidine compounds for use as ccr-3 inhibitors” (Novartis AG, priority 2000, dated 2003).

Tests used:
human CCR-3 = molecular target: T1, human CCR-3 (Homo sapiens, UniProt P51677); experiment: CCR-3 Binding Assay (SPA, [125I]-human eotaxin); conditions: membranes of RBL-2H3 cells stably expressing CCR3; 50 pM [125I]-human eotaxin; 4 hours at room temperature; read-out: IC50 (inhibition of binding of human eotaxin to human CCR-3)
T1 construct: expressed in transfected cells; host or cells: rat basophil leukemia (RBL-2H3) cells
T1 sequence (P51677 1-355): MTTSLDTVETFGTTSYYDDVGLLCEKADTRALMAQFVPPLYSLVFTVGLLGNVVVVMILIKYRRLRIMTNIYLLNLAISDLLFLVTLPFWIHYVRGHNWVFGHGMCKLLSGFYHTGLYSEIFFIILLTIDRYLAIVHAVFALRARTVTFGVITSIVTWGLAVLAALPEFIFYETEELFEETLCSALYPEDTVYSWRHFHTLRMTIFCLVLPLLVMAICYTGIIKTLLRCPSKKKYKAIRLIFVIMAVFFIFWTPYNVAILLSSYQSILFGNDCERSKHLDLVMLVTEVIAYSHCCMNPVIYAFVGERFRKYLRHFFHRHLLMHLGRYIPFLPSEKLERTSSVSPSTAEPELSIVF
Procedure: In this assay the effect of agents of the invention on the binding of human eotaxin to human CCR-3 is determined. Recombinant cells expressing human CCR-3 are captured by wheatgerm agglutinin (WGA) polyvinyltoluidene (PVT) SPA beads (available from Amersham), through a specific interaction between the WGA and carbohydrate residues of glycoproteins on the surface of the cells. [^125I]-human eotaxin (available from Amersham) binds specifically to CCR-3 receptors bringing the [^125I]-human eotaxin in close proximity to the SPA beads. Emitted â-particles from the [^125I]-human eotaxin excite, by its proximity, the fluorophore in the beads and produce light.
Preparation of Assay Buffer: 5.96 g HEPES and 7.0 g sodium chloride are dissolved in distilled water and 1M aqueous CaCl2 (1 mL) and 1M aqueous MgCl2 (5 mL) are added. The pH is adjusted to 7.6 with NaOH and the solution made to a final volume of 1 L using distilled water. 5 g bovine serum albumin and 0.1 g sodium azide are then dissolved in the solution and the resulting buffer stored at 4° C. A Complete™ protease inhibitor cocktail tablet (available from Boehringer) is added per 50 mL of the buffer on the day of use.
Preparation of Homogenisation Buffer: Tris-base (2.42 g) is dissolved in distilled water, the pH of the solution is adjusted to 7.6 with hydrochloric acid and the solution is diluted with distilled water to a final volume of 1L. The resulting buffer is stored at 4° C. A Complete™ protease inhibitor cocktail tablet is added per 50 mL of the buffer on the day of use.
Preparation of membranes: Confluent rat basophil leukemia (RBL-2H3) cells stably expressing CCR3 are removed from tissue culture flasks using enzyme-free cell dissociation buffer and resuspended in phosphate-buffered saline. The cells are centrifuged (800 g, 5 minutes), the pellet resuspended in ice-cold homogenisation buffer using 1 mL homogenisation buffer per gram of cells and incubated on ice for 30 minutes. The cells are homogenised on ice with 10 strokes in a glass mortar and pestle. The homogenate is centrifuged (800 g, 5 minutes, 4° C.), the supernatant further centrifuged (48,000 g, 30 minutes, 4° C.) and the pellet redissolved in Homogenisation Buffer containing 10% (v/v) glycerol. The protein content of the membrane preparation is estimated by the method of Bradford (Anal.Biochem. (1976) 72:248) and aliquots are snap frozen and stored at −80° C. The assay is performed in a final volume of 250 μL per well of an Optiplate (ex Canberra Packard). To selected wells of the Optiplate are added 50 μL of solutions of a test compound in Assay Buffer containing 5% DMSO (concentrations from 0.1 nM to 10 μM). To determine total binding, 50 μL of the Assay Buffer containing 5% DMSO is added to other selected wells. To determine non-specific binding, 50 μL of 100 nM human eotaxin (ex R&D Systems) in Assay Buffer containing 5% DMSO is added to further selected wells. To all wells are added 50 μL [^125I]-Human eotaxin (ex Amersham) in Assay Buffer containing 5% DMSO at a concentration of 250 pM (to give a final concentration of 50 pM per well), 50 μL of WGA-PVT SPA beads in Assay Buffer (to give a final concentration of 1.0 mg beads per well) and 100 μL of the membrane preparation at a concentration of 100 μg protein in Assay Buffer (to give a final concentration of 10 μg protein per well). The plate is then incubated for 4 hours at room temperature. The plate is sealed using TopSeal-S (ex Canberra Packard) according to the manufacturer's instructions. The resulting scintillations are counted using a Canberra Packard TopCount, each well being counted for 1 minute. The concentration of test compound at which 50% inhibition occurs (IC50) is determined from concentration-inhibition curves in a conventional manner.

[1] = molecular target: alpha-1 adrenergic receptor; experiment: alpha-1 adrenergic receptor radioligand binding assay ([125I]-HEAT, rat cerebral cortex membranes); conditions: for IC50: [125I]-HEAT 40 pM, 37° C. for 60 min, read-out: IC50 (inhibition of binding of the alpha-1 adrenergic receptor)
Procedure: Cerebral cortices from male Sprague-Dawley rats (175-200 g) are dissected and homogenised in 10 volumes of ice cold 0.32 M sucrose (containing 1 mM MgCl2 dihydrate and 1 mM K2HPO4) with a glass/teflon homogeniser. The membranes are centrifuged at 1000×g for 15 min., the pellet discarded and the centrifugation repeated. The supernatants are pooled and centrifuged at 18,000×g for 15 min. The pellet is osmotically shocked in 10 volumes of water and kept on ice for 30 min. The suspension is centrifuged at 39,000×g for 20 min., resuspended in Krebs-Henseleit buffer pH 7.4 (1.17 mM MgSO4 anhydrous, 4.69 mM KCl, 0.7 mM K2HPO4 anhydrous, 0.11M NaCl, 11 mM D-glucose and 25 mM NaHCO3) containing 20 mM Tris, and kept for 2 days at −20° C. The membranes are then thawed at 20-23° C., washed three times with Krebs-Henseleit buffer by centrifugation at 18,000×g for 15 min., left overnight at 4° C. and washed again three times. The final pellet is resuspended with a glass/teflon homogeniser in 125 mL/100 membranes in the same buffer. A sample is taken to determine the protein concentration (using the Bradford Assay with gamma globulin as the standard) and the remainder aliquoted and stored at −80° C.
The resulting membranes are subjected to a radioligand binding assay. […] The plates are incubated at 37° C. for 60 min., after which rapid vacuum filtration over Whatman GF/C 96 well filter plates is carried out. Each plate is then washed three times with 10 ml of ice cold assay buffer using a Brandel Cell harvester (Gaithersburg, Md.). Following drying of the plates for 3 h. at 50° C., 40 μL of Microscint 20 is added to each well, the plates incubated at room temperature for a further 20 min. and the retained radioactivity quantified in a Packard Topcount NXT scintillation counter.
Stock solutions of test compounds are dissolved initially in 100% DMSO and diluted with assay buffer to the required concentrations to yield 1% (v/v) DMSO.

Row | Structure (SMILES) | IC50 (human CCR-3) | IC50 [1] | Kd [1] | melting point
1 | COc1ccc(C#N)cc1/C=C/C(=O)N[C@H](Cc1ccncc1)CN1CCC(C(=O)c2ccc(F)cc2)CC1 [Example 44] | 25 nM | 331 nM | – | –
2 | N#Cc1cccc(/C=C/C(=O)N[C@H](Cc2ccccc2)CN2CCC(C(=O)c3ccc(F)cc3)CC2)c1 [Example 2, (E)-N-{(R)-1-Benzyl-2-[4-(4-fluoro-benzoyl)-piperidin-1-yl]-ethyl}-3-(3-cyano-phenyl)-acrylamide] | 68 nM | 221 nM | – | –
3 | COc1ccc(Br)cc1/C=C/C(=O)NCCN1CCC(C(=O)c2ccc(F)cc2)CC1 [Example 7] | 15 nM | 48 nM | – | –
4 | O=C1c2ccccc2CCC1CNCCc1ccc(O)c(I)c1 (centres unmarked) [[^125I]-HEAT, reference compound] | – | – | 0.0589 ± 0.0187 nM | –
5 | COc1ccc(C#N)cc1/C=C/C(=O)N[C@H](Cc1cnc[nH]1)CN1CCC(C(=O)c2ccc(F)cc2)CC1 [Example 30] | 13 nM | 121 nM | – | –
6 | COc1ccc(C#N)cc1/C=C/C(=O)N[C@H](CO)CN1CCC(C(=O)c2ccc(Cl)cc2)CC1 [Example 38, (E)-N-{(S)-2-[4-(4-chloro-benzoyl)-piperidin-1-yl]-1-hydroxymethyl-ethyl}-3-(5-cyano-2-methoxy-phenyl)-acrylamide] | 14 nM | 1520 nM | – | –
7 | CCOc1ccc(Br)cc1/C=C/C(=O)N[C@H](Cc1ccccc1)CN1CCC(C(=O)c2ccc(F)cc2)CC1 [Example 4] | 13 nM | 94 nM | – | –
8 | COc1ccc(C#N)cc1/C=C/C(=O)N[C@H](CO)CN1CCC(C(=O)c2ccc(Cl)cc2)CC1 [Example 47, (E)-N-{(S)-1-[4-(4-Chloro-benzoyl)-piperidin-1-ylmethyl]-2-hydroxy-ethyl}-3-(5-cyano-2-methoxy-phenyl)-acrylamide] | – | – | – | 162 to 163 °C
9 | N#Cc1cccc(/C=C/C(=O)NCCN2CCC(C(=O)c3ccc(F)cc3)CC2)c1 [Example 1] | 125 nM | 210 nM | – | –
10 | COc1ccc(Br)cc1/C=C/C(=O)N[C@H](CO)CN1CCC(C(=O)c2ccc(Cl)cc2)CC1 [Example 43] | 22 nM | 356 nM | – | –
11 | COc1ccc(Br)cc1/C=C/C(=O)NCCN1CCC(C(=O)c2ccc(Cl)cc2)CC1 [Example 13, (E)-3-(5-Bromo-2-methoxy-phenyl)-N-{2-[4-(4-chloro-benzoyl)-piperidin-1-yl]-ethyl}-acrylamide] | 26 nM | 53 nM | – | –

Further lines, results first:

Row | IC50 (human CCR-3) | IC50 [1] | Kd [1] | melting point | Structure (SMILES)
12 | 2 nM | 72 nM | – | – | COc1ccc(C#N)cc1/C=C/C(=O)N[C@H](Cc1ccco1)CN1CCC(C(=O)c2ccc(F)cc2)CC1 [Example 28]
13 | 11 nM | 387 nM | – | – | COc1ccc(Br)cc1/C=C/C(=O)N[C@H](CO)CN1CCC(C(=O)c2ccc(F)cc2)CC1 [Example 25]
14 | 5 nM | 58 nM | – | – | COc1ccc(Br)cc1/C=C/C(=O)N[C@H](Cc1cccnc1)CN1CCC(C(=O)c2ccc(F)cc2)CC1 [Example 9]
15 | 10 nM | 131 nM | – | – | N#Cc1cccc(/C=C/C(=O)N[C@H](Cc2ccco2)CN2CCC(C(=O)c3ccc(F)cc3)CC2)c1 [Example 23]
16 | 8 nM | 89 nM | – | – | CC(C)Oc1ccc(Br)cc1/C=C/C(=O)NCCN1CCC(C(=O)c2ccc(F)cc2)CC1 [Example 20]
17 | 6 nM | 215 nM | – | – | COc1ccc(Cl)cc1/C=C/C(=O)N[C@H](CO)CN1CCC(C(=O)c2ccc(Cl)cc2)CC1 [Example 40]
